Data: patent US8003595B2, “Amino acid sequences facilitating penetration of a substance of interest into cells and/or cell nuclei” (Cellectis, priority 2000, dated 2011)
Like-named read-outs stand apart in the source and are kept apart here. Marks after values point to notes of the source that are not given here. Where no end group is shown, it is not given here.

Experiments:
H1299 = assay: Growth inhibition by peptide-doxorubicin conjugates (MTT, 48 hours); assay type: cell-based; details: Homo sapiens, NCI-H1299, read-out: molar concentration giving 50% inhibition of the growth of the cells
Experimental: (§1) To evaluate the biological activity of peptide-doxorubicin conjugates, the inhibition of the growth of tumor cells in culture is measured.
(§2) The cells are sown the night before in 96-well plates at the rate of 10^3 cells per well.

HH9 = assay: as above; assay type: cell-based; details: Homo sapiens, read-out: molar concentration giving 50% inhibition of the growth of the cells
Experimental: as §1, §2

B16.F10 = assay: as above; assay type: cell-based, murine; details: Mus musculus, read-out: molar concentration giving 50% inhibition of the growth of the cells
Experimental: as §1, §2

K562 R = assay: as above; assay type: cell-based; details: Homo sapiens, K-562R, read-out: molar concentration giving 50% inhibition of the growth of the cells, resistant to doxorubicin
Experimental: as §1, §2
(§3) It appears that, in vitro, the sensitivity of the cells to the peptide-doxorubicin conjugates is on the same order of magnitude as that of natural doxorubicin. The lines resistant to doxorubicin (K562R and MCF7R) require a greater concentration of doxorubicin.

MCF7R = assay: as above; assay type: cell-based; details: Homo sapiens, read-out: molar concentration giving 50% inhibition of the growth of the cells, resistant to doxorubicin
Experimental: as §1, §2, §3

HH9 tumors = assay: In vivo anti-tumor activity of peptide-doxorubicin conjugates; design: species or system nude mice; details: day 60, total of 120 μg of doxorubicin or the equivalent, peritumoral injection
Experimental: Nude mice are injected with 3×10^6 HH9 cells subcutaneously in the side. On day 19 after the cell implant, the tumors are measured, and 4 groups of 6 mice are formed that receive by peritumoral injection either NaCl, or natural doxorubicin, or 1047-doxorubicin, or HBP1-doxorubicin conjugates at the rate of 30 μg of doxorubicin or the equivalent of conjugates every two weeks. The tumors are measured and their volume calculated.

[1] = In vivo toxicity of peptide-doxorubicin conjugates (weight loss); details: for Weight loss: relative to mice that received NaCl; for Weight of the mice: intravenous, peptide-doxorubicin conjugates
Experimental: (§9) Injection of doxorubicin or doxorubicin-peptide by the intravenous route makes it possible to compare the toxicity of the different preparations. The estimate is made by the weight loss of the mice (5 mice per group). Two experiments were done: • Experiment 1: The mice received 200 μg per injection at 3-day intervals, or 600 μg of doxorubicin or the equivalent peptide-doxorubicin in all. The mice were weighed the day after the last injection. • Experiment 2: The mice received 2 injections of 200 -μg of doxorubicin or the peptide-doxorubicin equivalent at one week intervals, or 400 μg in all, and were weighed the day after the last injection.
(§10) The average weight loss is calculated in relation to the average weight of the mice that received NaCl.

H1299 cells [2] = assay: Inhibition of peptide-peroxidase internalization by drugs or 4° C.; assay type: cell-based, human; details: peptide-peroxidase 0.2 μg/ml, 2 hours
Experimental: To understand the biological mechanisms whereby the peptides penetrate into the cells and their compartmentalization, experiments are done with drugs whose action on certain cell compartments is specific. The peptide-peroxidases were incubated with H1299 cells at a concentration of 0.2 μg/ml for 2 hours in the presence, or not, of a drug. The cells were lysed, and the peroxidase dosed in the cellular lysate.

[3] = ELISA fixation of biotinylated peptides on sensitized plates; assay type: binding; details: read-out: avidity (Kd), quantity of peptides necessary to obtain 50% fixation, Heparin; Table 5
Experimental: The capacity of peptides SEQ ID NO: 1 to 21 to attach themselves to DNA and heparin is evaluated on ELISA plates sensitized with DNA or heparin. Dilutions of biotinylated peptides are deposited on the plates and their fixation is shown using streptavidin conjugated with peroxidase. […] The avidity of each of the peptides for DNA or heparin is evaluated by the quantity (×10^−6 M) of peptides necessary to obtain 50% fixation.

[4] = as above; assay type: binding; details: read-out: avidity (Kd), quantity of peptides necessary to obtain 50% fixation, Chondroitin A; Table 5
[5] = as above; assay type: binding; details: read-out: avidity (Kd), quantity of peptides necessary to obtain 50% fixation, Chondroitin B; Table 5
[6] = as above; assay type: binding; details: read-out: avidity (Kd), quantity of peptides necessary to obtain 50% fixation, Chondroitin C; Table 5
H1299 cells [7] = assay: Internalization of covalent peptide-peroxidase conjugates; assay type: cell-based, human; details: H1299, 0.2 μg/ml conjugate, 2 hours
How it was run: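 Peptides coupled via C-terminal cysteine to maleimide-activated peroxidase; uncoupled peptide removed by ultrafiltration. H1299 cells incubated 2 h with increasing conjugate concentrations, washed, lysed; internalized peptide quantified from lysate peroxidase against a conjugate standard curve, as pg/10^3 cells.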

3T3 = assay: as above; assay type: cell-based, mouse; details: 2 hours
Experimental: (§4) To evaluate more directly the penetration of the peptides, avoiding the avidin-peroxidase bias, some of the peptides in sequences SEQ ID NO: 25 to 48 were conjugated covalently with cysteine in the C-terminal position of the peptide to peroxidase. The peptides were coupled with peroxidase in the following way:
(§5) One mg of peroxidase activated with maleimide (Sigma) in 100 μl of sodium phosphate buffer, NaCl 0.15 M, EDTA 5 mM, had 1 mg of peptide added to it. After 2 hours at laboratory temperature, β-mercaptoethanol is added to a final concentration of 1.5 mM for 15 minutes. The uncoupled peptide is eliminated by centrifugation on ultrafiltration membranes (cut-off threshold=30,000 Daltons, Sartorius), followed by three washings in sodium phosphate buffer 0.1 M, pH 7.4 containing 0.15 M NaCl.
(§6) It appears that the higher the concentration of peptide-peroxidase conjugate in the culture medium, the more the quantity internalized increases. To compare the penetration of the conjugates by cell type, the cells from different lines were incubated with 0.2 μg/ml of peptide-peroxidase conjugate for 2 hours, and the quantity of peroxidase dosed in the lysates. Table 9 and Table 9B below give the results expressed in pg/10^3 cells. The quantity of each peptide internalized in the different lines generally varies only from single to double.

HeLa = assay: as above; assay type: cell-based, human; details: 2 hours
Experimental: as §4, §5, §6

[8] = tested on: gram-positive and gram-negative bacterial strains; assay: Antibacterial activity of cationic peptides, summary over strains; assay type: cell-based; details: summary of Table 29
Experimental: (§7) The gram-positive bacterial strains are: Enterococcus faecalis (ATCC 29212), and Staphylococcus aureus (ATCC 25923) and the gram-negative strains are: Escherichia coli (ATCC 25922), Pseudomonas aeruginosa (ATCC 27853) and Salmonella typhimurim (clinical isolate), Salmonella typhiTy2 (WHO). The bacteria are cultured with shaking all night at 37° C., then recultured at a dilution of 1:50 in some fresh Luria-Bertani (LB) medium for 2 hours. The bacterial concentration is adjusted to […], and 50 μl is distributed in 96-well plates with an equal volume of peptides diluted half and half (256-0.5 μg/ml) in LB medium. […] To determine the minimum bactericide concentration, 10 μl from each well is spread on gelose plates in LB medium.
However, when peptide HPB13 (SEQ ID NO: 38) is coupled with peptide SEQ ID NO: 24, it enhances its activity by a factor of 50 to 100 (peptide SEQ ID NO: 45). […] None these peptides are active on gram-positive bacteria.

Caco-2 cell monolayers = assay: Integrity of the Caco-2 barrier model in presence of HBP peptides; details: Table 30; 30 μg/ml, 8 hours in HBSS; three inserts; listed as HBP7
Experimental: Caco-2 cells were seeded at a density of 160000 cells/cm^2 on a polyethylene terephtalate microporous membranes, previously coated with bovine dermal collagen, in a synthetic serum-free medium (Basal Defined Medium, BDM). Culture medium was changed three times a week and cells were maintained at 37° C. in a an atmosphere of 5% CO2 for 18 days. As a negative control to check the integrity of the Caco-2 barrier, 10^6 dpm/ml D-[^14C]-mannitol was used. […] Other controls included D-[^14C]-mannitol/L-[^3H]-Proline+HBP7 30 μg/ml and D-[^14C]-mannitol/L-[^3H]-proline+HBP10 30 μg/ml.
Trans-epithelial transport experiments were carried out. The trans-epithelial electrical resistance (TEER) was measured to check the integrity of the Caco-2 cell monolayers. The cell monolayers were preincubated in Hanks' balanced salt solution (HBSS, 5 mM glucose, supplemented with 10 mM Hepes) for 8 hours at 37° C. At 1, 2, 4 and 8 hours, 100 μl of medium was collected from the lower compartment and replaced by fresh HBSS. At the end of the experiment (8 hours), the cell monolayers were washed three times with PBS and TEER was measured.

[9] = tested on: Enterococcus faecalis (ATCC 29212); assay: microbe, parasite or virus in culture; assay type: cell-based; details: ATCC 29212
Experimental: as §7
(§8) The results are expressed as the peptide concentration in MBC (μM).

[10] = tested on: Escherichia coli (ATCC 25922); assay: microbe, parasite or virus in culture; assay type: cell-based; details: ATCC 25922; read-out: MBC
Experimental: as §7, §8

[11] = tested on: Pseudomonas aeruginosa (ATCC 27853); assay: microbe, parasite or virus in culture; assay type: cell-based; details: ATCC 27853
Experimental: as §7, §8

[12] = tested on: Staphylococcus aureus (ATCC 25923); assay: microbe, parasite or virus in culture; assay type: cell-based; details: ATCC 25923
Experimental: as §7, §8

[13] = tested on: Salmonella typhimurim (clinical isolate); assay: Antibacterial activity of cationic peptides (MBC); assay type: cell-based; details: S. typhimurium
Experimental: as §7, §8

[14] = tested on: Salmonella typhiTy2 (WHO); assay: microbe, parasite or virus in culture; assay type: cell-based, S. typhi-Ty2; details: S. typhi-Ty2
Experimental: as §7, §8

[15] = mouse, in vivo, iv
Experimental: as §9, §10

[16] = tested on: Escherischia coli (ATCC25922); assay: Activity of lysozyme coupled to peptides (MBC); assay type: cell-based, Escherichia coli; details: E. coli
Experimental: The […] bacterial strain Escherischia coli (ATCC25922) is cultured until the semi-logarithmic phase in Luria-Bertani (LB) medium. The bacteria are collected by centrifugation and resuspended in 1% bacto-peptone medium at a concentration of 5×10^5 cfu/ml (colony forming unit/ml). Lysozyme or the peptide-lysozyme conjugates are diluted half and half (256 to 0.5 μg/ml) in bacto-peptone medium, and 50 μl is distributed in 96-well plates. 50 μl of the bacterial dilution is then added to each well. After 16 hours of incubation at 37° C., 10 μl from each well is smeared on gelose plates in LB medium.
Table 28 reports the inhibition of the growth of E. coli (MBC μg/ml).

HeLa cells = assay: Penetration of RNase A transported by peptide-F(ab′)2 anti-RNase transporter; assay type: cell-based, human
Experimental: Two mg of antibody F(ab′)2 anti-RNase in 1 ml of potassium phosphate buffer 0.1 M pH 7.4 are added to 110 μg of SMCC [succinimidyl 4-(N-maleimidomethyl)cyclohexane-1-carboxylate] in 11 μl of dimethylsulfoxide. The solution is incubated for 45 minutes at laboratory temperature. The excess reagent is eliminated by centrifugation on ultrafiltration membranes (cutoff threshold=10,000 Da, Vivascience), followed by three washings in sodium phosphate buffer 10 mM, pH 7 containing 01.5 M of NaCl and 5 mM of EDTA. The coupling with the peptide is then done in a molar ratio of 6 peptides to 1 F(ab′)2 in the sodium phosphate buffer 10 mM, pH 7, containing 0.5 M of NaCl and 5 mM of EDTA for three hours at laboratory temperature. Then, the excess uncoupled peptide is totally eliminated by centrifugation on ultrafiltration membranes, as in the preceding step. These transporters [anti-RNase peptide-F(ab′)2)] are added to ribonuclease A in some complete culture medium, and the solution is incubated for 1 hour at laboratory temperature. The molar ratio of this reaction is 2 RNase/1 F(ab′)2. […]
To measure the quantity of RNase A internalized, the cells are trypsinized, transferred into microtubes and counted. […]

Experimental for HH9 cells: The cells are sown at night on plates with 96 wells, at the rate of 10^3 cells per well.
The next day, the supernatant is suctioned off and replaced with 100 μl of medium containing succession dilutions of RNase A-vector or natural RNase A and the culture continued for 72 hours.
The wells are then filled with 50 μl of a solution of MTT (3-(4,5-dimethylthiazol-2-yl)-2,5-diphenyl tetrazolium bromide) at 1 mg/ml in the culture medium and cultivated for 4 hours.
The supernatant is removed, and 100 μl of dimethylsulfoxide is added to the wells. After the crystals dissolve, the coloration is read at 550 nm.
The results are calculated as a percentage of the average optic density obtained in the wells of cells containing the dilutions of the samples being tested and the optical density of the wells that received only medium.
The different peptide-RNase conjugates were tested on varied cell lines.

COc1cccc2c1C(=O)c1c(O)c3c(c(O)c1C2=O)C[C@@](O)(C(=O)CO)C[C@@H]3O[C@H]1C[C@H](N)[C@H](O)[C@H](C)O1 [Doxorubicin (natural), Doxorubicin]
IC50 (H1299): 300 nM | IC50 (HH9): 300 nM | IC50 (B16.F10): 100 nM | IC50 (K562 R): 3000 nM | IC50 (MCF7R): 200000 nM | tumor growth inhibition (HH9 tumors): 79% | Weight loss ([1]; Exp. 1: 600 μg in all): 31* % | Weight loss ([1]; Exp. 1: 600 μg in all, listed as natural doxorubicin): 31% | Weight of the mice ([1]; Exp. 1: 600 μg of doxorubicin or equivalent in all): 16.06 | Weight loss ([1]; Exp. 2: 400 μg in all): 15% | Weight of the mice ([1]; Exp. 2: 400 μg of doxorubicin or equivalent in all): 26.7

GKRKKKGKLGKKRDP [SEQ ID NO: 30]
percentage inhibition of peptide internalization (H1299 cells [2]; Ammonium chloride (50 mM)): 70% | percentage inhibition of peptide internalization (H1299 cells [2]; Chloroquin (100 μM)): 79% | percentage inhibition of peptide internalization (H1299 cells [2]; Genistein (200 μM)): 68% | percentage inhibition of peptide internalization (H1299 cells [2]; Sodium chloride (80 mM)): 69% | percentage inhibition of peptide internalization (H1299 cells [2]; Temperature (4° C.)): 100% | Kd [3]: 54 nM | Kd [4]: 78 nM | Kd [5]: 58 nM | Kd [6]: 19 nM | Internalization of Peptide-peroxidase (H1299 cells [7]; Table 9): 22.5 pg/10^3 cells | Internalization of Peptide-peroxidase (H1299 cells [7]; Table 9B): 63.3 pg/10^3 cells | Internalization of Peptide-peroxidase (3T3; Table 9, 0.2 μg/ml conjugate): 48.8 pg/10^3 cells | Internalization of Peptide-peroxidase (3T3; Table 9B, 0.2 μg/ml conjugate): 44.2 pg/10^3 cells | Internalization of Peptide-peroxidase (HeLa; Table 9, 0.2 μg/ml conjugate): 11 pg/10^3 cells | Internalization of Peptide-peroxidase (HeLa; Table 9B, 0.2 μg/ml conjugate): 3.6 pg/10^3 cells | bactericide / anti-microbial activity [8]: no anti-microbial activity | TEER after incubation (Caco-2 cell monolayers): 145 Ω · cm^2

KHLKKHLKKHLK [SEQ ID NO: 38]
MBC [9]: >170 µM | MBC [10]: >170 µM | MBC [11]: >170 µM | MBC [12]: >170 µM | MBC [13]: >170 µM | MBC [14]: >170 µM | Weight of the mice [15]: 30

Natural lysozyme: lysozyme, a muraminidase, unconjugated
minimal bactericide concentration (MBC), inhibits 75% of the growth [16]: >256 µg/mL

B1: natural RNase A: bovine Ribonuclease A, unconjugated (protein)
chain: KETAAAKFERQHMDSSTSAASSSNYCNQMMKSRNLTKDRCKPVNTFVHESLADVQAVCSQKNVACKNGQTNCYQSYSTMSITDCRETGSSKYPNCAYKTTQANKHIIVACEGNPYVPVHFDASV
Quantity of RNase internalized (HeLa cells): 0 pg/10^4 cells | cytotoxic activity (HH9 cells): no cytotoxic activity
